The values below come from US10239878B2, “Macrocyclic ligands with pendant chelating moieties and complexes thereof” (LUMIPHORE, INC., priority 2016, dated 2019).

Holding throughout (format): physicochemical
The nature of series [1]: Photophysical characterization of Eu complexes (UV-vis absorption, quantum yield, lifetime). The protocol:
The europium complexes of ligands 16, 29, 33, 40, and 43 were prepared by separately dissolving each ligand (2 mg) into methanol (200 μL). Excess europium chloride hexahydrate (˜5 equivalents) was dissolved in methanol (200 μL) and the full volume was added to each of the ligand solutions. The solvent was removed, and the residue was dissolved into DMF (50 μL). The europium complexes were then purified by semi-prep HPLC on an Agilent 1260 Infinity instrument using an Eclipse XDB-C18 column (5 μm, 9.4×250 mm). The mobile phase was 10 to 30% acetonitrile in water containing 0.1% trifluoroacetic acid. The volatiles were removed from the HPLC eluents under vacuum, and the residues were separately dissolved into methanol (500 μL) to give methanolic stock solutions of each europium complex with greater than 98% purity. A few drops of these methanolic solutions were evaporated to dryness, and then the residue was dissolved into TBS buffer at a concentration of ca. 3 μM to make aqueous stock solutions (20 mL) with an absorbance of 0.05 (1 cm path length) at 365 nm. Five dilutions (1/6, 2/6, 3/6, 4/6, and 5/6) were made from these aqueous stock solutions to yield six samples with evenly spaced concentrations (3 mL volume each). Quinine sulfate dissolved in 0.05 M sulfuric acid was similarly diluted to a final absorbance of 0.05 at 365 nm, and this solution was similarly (1/6, 2/6, 3/6, 4/6, and 5/6) diluted to afford six quinine sulfate reference samples of evenly spaced concentration. Quinine sulfate in 0.05 M sulfuric acid was used as the quantum yield standard (Φ=0.508). By measuring the absorbance and luminescence of these dilute solutions, the quantum yields of the new Eu complexes were determined. A 5 cm path-length quartz cell was used to measure the absorbance of these dilute solutions in order to improve the UV-vis signal-to-noise. Steady state photoluminescence measurements were collected in a 1 cm fluorescence cuvette at 365 nm excitation wavelength, 1 nm resolution, 10 nm excitation slit width, 1 nm emission slit width, and 0.2 sec integration time on an instrument that has been described elsewhere (D'Aléo, A.; Moore, E. G.; Szigethy, G.; Xu, J.; Raymond, K. N. Inorg. Chem. 2009, 48, 9316.). Absorption spectra were measured at 1 nm resolution, and the absorbance of each sample was taken as the average absorbance measured from 360-370 nm to reflect the 10 nm excitation slit width used for luminescence measurements. The data derived from these experiments, and from the titration experiments in example 11 are tabulated below.

Series [2] in a line: Europium titration experiments for determining extinction coefficients. As for the experimental part: In order to determine accurate extinction coefficients for 16 and 16⋅Eu, titration experiments using europium chloride as the titrant were performed. Europium chloride hexahydrate (13.22 mg, 0.03608 mmol) was dissolved into 5 mM citrate buffer (pH=4) using a 100 mL volumetric flask to give a 0.3608 mM europium chloride solution, which was then titrated into a 0.5 mL solution of 16 in TBS buffer (Tris-buffered saline, 50 mM Tris, 150 mM NaCl, pH=7.6) using 5 μL aliquots. The UV-vis spectra were adjusted for the increase in solvent volume due to each injection. The results of the UV-vis titration are plotted in FIG. 3.
The volume of europium chloride corresponds to 16.70 nmol of europium, meaning the starting concentration of ligand 16 was 33.40 μM. […] These absorbance and concentration values yield extinction coefficients of 13,600 M^−1 cm^−1 and 14,300 M^−1 cm^−1 for the ligand 16 and the complex 16⋅Eu respectively.
In order to determine accurate extinction coefficients for 43 and 43⋅Eu, titration experiments using europium chloride as the titrant were performed. Europium chloride hexahydrate (47.58 mg, 0.1299 mmol) was dissolved into 50 mM citrate buffer (pH=4) using a 10 mL volumetric flask to give a 12.99 mM europium chloride solution, which was then transferred to a 100 mL volumetric flask and diluted 1:10 with water. The resulting 1.299 mM europium chloride solution (in 5 mM citrate buffer) was then titrated into a 1 mL solution of 43 in TBS buffer using 5 μL aliquots. The UV-vis spectra were adjusted for the increase in solvent volume due to each injection. The results of the UV-vis titration are plotted in FIG. 4.
The volume of europium chloride corresponds to 47.46 nmol of europium, meaning the starting concentration of ligand 43 was 47.46 μM. […] These absorbance and concentration values yield extinction coefficients of 13,000 M^−1 cm^−1 and 12,800 M^−1 cm^−1 for the ligand and complex respectively.
Titration of ligand 43 was also performed by luminescence (FIG. 5), monitoring the europium signal at 612 nm upon photoexcitation of the solution at 340 nm. The ligand solution used for the UV-vis titration of 43 mentioned above was first diluted 1:10 in TBS buffer. Similarly, the 1.299 mM stock europium solution was separately diluted 1:10 with water. […] The 32.99 μL equivalence point gives extinction coefficients of 14,400 M^−1 cm^−1 at 383 nm and 14,200 M^−1 cm^−1 at 357 nm for 43 and 43⋅Eu respectively. Averaging the values from both UV-vis and luminescence titration experiments of 43 yields extinction coefficients of 13,700 M^−1 cm^−1 at 383 nm and 13,500 M^−1 cm^−1 at 357 nm for 43 and 43⋅Eu respectively.

A short description of series [3]: 250 mM DTPA competition experiments (kinetic stability of Eu complexes). To be noted: 33⋅Eu versus 16⋅Eu, 43⋅Eu versus 40⋅Eu. An excerpt: From these experiments, it is clear that 43⋅Eu is remarkably stable to a wide range of competitive metal ions and chelators. The competitor concentrations mentioned above are a good way to assess the kinetic stability of the complex in various assay conditions. DTPA is an exceptionally good ligand for lanthanide ions, and thus it is not typically used in practical assays. However, DTPA competition offers an excellent way to benchmark the kinetic stability of the complexes reported here. […] In order to compare the kinetic stability of the complexes reported here, a 750 mM stock solution (25 mL) of DTPA was prepared by dissolving DTPA (7.375 g, 18.75 mmol) into water (20 mL) containing potassium hydroxide (5.26 g, 93.75 mmol). The pH of the DTPA solution was adjusted to pH=7.6 by addition of concentrated hydrochloric acid, and then the solution was diluted to a final volume of 25 mL to give a 750 mM DTPA stock solution at pH=7.6. HPLC purified europium complexes of 16, 29, 33, 40, and 43 were separately diluted to 11 μM in TBS buffer, pH=7.6. For each DTPA competition experiment, 1 mL of the 750 mM DTPA solution was added to 2 mL of the 11 μM europium complex solution. The luminescence at 612 nm (365 nm excitation) was monitored for these five separate solutions containing 250 mM DTPA and 7.1 μM of each europium complex as a function of time.

As for `NCCOCCNC(=O)C1CCCN(C(=O)c2cccc(=O)n2[O-])CCCNC(=O)c2ccc(n([O-])c2=O)C(=O)NC2COCC2NC(=O)c2ccc(c(=O)n2[O-])C(=O)NCCCN1C(=O)c1cccc(=O)n1[O-].[Eu+3]` (mixture of isomers) [43⋅Eu], in series [1] (TBS buffer, pH 7.6), the “ε260/ε at λmax” value is on record as 1.52, the “ε280/ε at λmax” value turned out to be 1.20 and the λmax stood at 358 nm. In series [1] (TBS buffer, quinine sulfate as quantum yield standard), the “Φtotal at 365 nm excitation” value was 28.8%. This molecule also came in with a Lifetime in series [1] (luminescence, HPLC purified Eu complexes) of 734 μs. For the same molecule, the extinction coefficient in series [2] (UV-vis titration with europium chloride, TBS buffer pH 7.6, at lambda max) was 12,800 M^−1 cm^−1. This molecule gave a lambda max in series [2] (UV-vis titration, TBS buffer) of 357 nm. Moreover, the “extinction coefficient, average of UV-vis and luminescence titration” value in series [2] (at 383 nm (ligand) / 357 nm (complex)) is 13,500 M^−1 cm^−1. Also, in series [2] (by europium titration, TBS buffer pH 7.6), the “ε at λmax” value is recorded as 13,500 M^−1cm^−1. Moreover, the extinction coefficient in series [2] (luminescence titration (612 nm signal, 340 nm photoexcitation), at 383 nm (ligand) / 357 nm (complex)) is 14,200 M^−1 cm^−1. Further, the “reduction in kinetic stability upon introduction of the spermine-based sidearm” value in series [3] is ~2 fold.
